{
  "source": "patent US20130189320A1",
  "about": "“METHOD OF PREPARING A CONTROLLED RELEASE PARTICLE OF SOY ISOFLAVONE WITH BIODEGRADABLE POLYMER USING A SUPERCRITICAL FLUID EXTRACTION OF EMULSION (SFEE) PROCESS” (Nano and Advanced Materials Institute Limited, priority 2012, published 2013)",
  "key": {"[1]": {"experiment": "in vitro drug release study, aqueous medium containing 1% Tween 80", "type": "physicochemical", "conditions": "24-hour period, FIG. 3", "description": "In the drug release study, an aqueous medium containing 1% Tween 80 is used to re-suspend the genistein-containing PLGA particles or the raw genistein. The cumulative release percentage of the encapsulated genistein from the PLGA coated particles and that of the raw genistein without PLGA for a 24-hour period is shown in FIG. 3. […] That may be due to the presence of free and weakly bound drug on the surface of particulate carriers. […] In FIG. 3, the encapsulated genistein from the PLGA coated particles has a cumulative release percentage of below 20% within the first 24 hours while the raw genistein has over 40% of release over the 24-hour period. From this in vitro study, it could be said that the extended release profile of genistein-containing PLGA particles can increase the chance of genistein to be utilized in human body, which further leads to an improved bioavailability. The slower the release rate is, more available active ingredients are released to a specific site of action."}, "[2]": {"experiment": "particle morphology and size under scanning electron microscope (SEM)", "type": "physicochemical", "description": "It appears from the SEM images that the particle of genistein with PLGA has a nearly spherical shape and an average size of less than 1 μm. In comparison, the raw genistein is rectangular rod-shaped and the width (i.e., the shortest side of the rectangular rod-shaped raw genistein) is about 10 μm. PLGA matrix can protect genistein from degradation in the gastrointestinal tract and also from first-pass metabolism in the liver. Meanwhile, the nearly spherical shape of the genistein particle with the size less than 1 μm has a larger surface area to favor the interaction between the particle and the target cell in order to increase the chance of localizing on the target cell and delivering the genistein encapsulated in the particle in a controlled release manner."}},
  "data": [
    {"smiles": "O=c1c(-c2ccc(O)cc2)coc2cc(O)cc(O)c12", "note": "[raw genistein, genistein]", "values": [
      {"measurement": "cumulative release percentage of genistein", "setting": "[1]", "value": "over 40%"},
      {"measurement": "width (shortest side of rectangular rod-shaped particle)", "setting": "[2]", "value": "about 10 μm"}
    ]}
  ]
}
